Positions of bridges follow the written chain, without caps; N, C: chain ends. Residues, ends and D or L forms follow the SMILES beside them. *: point of attachment. X1 = O=C(CON=C[C@H](O)[C@H](O)[C@H](O)CF)*; AEEA = NCCOCCOCC(=O)O
Experiments:
[1] = system: rats with skin/muscle inflammation (turpentine oil); assay type: in vivo, rat
Experimental: Rats were divided into two groups with Group 1 being intravenously (i.v.) given ^68Ga-DOTA-Siglec-9 (16 ± 2.9 MBq, n = 8) and Group 2 ^18F-FDR-Siglec-9 (18 ± 5.1 MBq, n = 8). A 60 min dynamic PET acquisition was performed on a High Resolution Research Tomograph (HRRT; Siemens Medical Solutions, Knoxville, TN, USA). The PET data were reconstructed into 5 × 60 s and 11 × 300 s frames using an ordered-subsets expectation maximization 3D algorithm (OSEM3D). Quantitative PET image analysis was performed by defining regions of interest (ROIs) within the inflamed area (on the left foreleg), control area (on the right foreleg), kidneys, lungs, heart, liver, and urinary bladder using […] 2.8 software (Turku PET Centre). Results were expressed as standardized uptake values (SUV) and time-activity curves. SUV was calculated as a ratio of tissue radioactivity concentration (Bq/mL) and given radioactivity dose (Bq) divided by animal's body weight.

[2] = Ex vivo gamma counting biodistribution in atherosclerotic mice; conditions: mouse, total radioactivity, LDLR^−/−ApoB^100/100 mice (n = 19), 25 min after injection, mean ± SD
Experimental: (§1) Six-month-old atherosclerotic low-density lipoprotein receptor-deficient mice (weight, 27 ± 4.1 g; n = 19) expressing only apolipoprotein B100 (LDLR^−/−ApoB^100/100, strain #003000; Jackson Laboratory, Bar Harbor, ME, USA) were fed for 4 months with a Western-type diet. Two-month-old C57BL/6N mice (weight, 24 ± 2.2 g; n = 13) fed with a regular chow served as controls.
(§2) In PET studies, mice (19 atherosclerotic, 13 controls) were injected with 14 ± 4.4 MBq of ^18F-FDR-Siglec-9. Twenty-five minutes after ^18F-FDR-Siglec-9 injection, blood was drawn by cardiac puncture and the animals were killed. The thoracic aorta was excised and rinsed in saline to remove the blood. In addition, various other tissues were excised and patted dry. Samples of blood and urine were collected, and blood plasma was separated by centrifugation. […] The results were expressed as % ID/g and target-to-background ratio.

[3] = Ex vivo gamma counting biodistribution in control mice; conditions: mouse, total radioactivity, C57BL/6N control mice (n = 13), 25 min after injection, mean ± SD
Experimental: as §1, §2

[4] = Human radiation dosimetry extrapolated from rat PET data (OLINDA/EXM); conditions: mean ± SD
Experimental: Absorbed doses of ^68Ga-DOTA-Siglec-9 and ^18F-FDR-Siglec-9 were calculated with the OLINDA/EXM version 1.0 software (organ level internal dose assessment and exponential modeling; Vanderbilt University, Nashville, TN, USA), which applies the MIRD schema (developed by the Medical Internal Radiation Dose committee of the Society of Nuclear Medicine) for radiation dose calculations in internal exposure. The software includes radionuclide information and selection of human body phantoms. The residence times derived from the rat data were integrated as the area under the time-activity curve. The residence times were converted into corresponding human values by multiplication with a factor to scale the organ and body weights: (WBody,rat/WOrgan,rat)×(WOrgan,human/WBody,human), where WBody,rat and WBody,human are the body weights of rat and human (a 70-kg male), respectively; and WOrgan,rat and WOrgan,human are the organ weights of rat and human (organ weights for a 70 kg male), respectively [14].

[5] = Ex vivo gamma counting biodistribution in rats with skin/muscle inflammation; conditions: Sprague-Dawley, rat, iv, total radioactivity; for tissue uptake at 1 h: Ex vivo biodistribution, rats with skin/muscle inflammation, i.v., 60 min after injection, gamma counting, mean ± SD
Source text: (§3) Twenty-four hours before the PET studies, Sprague-Dawley rats (weight, 350 ± 22 g; n = 16) were subcutaneously injected with turpentine oil (Sigma-Aldrich) to induce focal acute, sterile inflammation [12]. Before the injection, rats were shaved on the both forelegs. Inflamed area on the left foreleg contained both skin and muscle. The intact, contralateral side (right foreleg) was used as a control.
(§4) After PET imaging, rats were sacrificed and various tissues were excised and weighed, and their radioactivity levels were measured with a gamma counter (1480 Wizard 3′′, PerkinElmer, Turku, Finland). The ex vivo biodistribution results were expressed as a percentage of the injected radioactivity dose per gram of tissue (% ID/g) and target-to-background ratio.

[6] = system: rats with skin/muscle inflammation (turpentine oil); assay: as above; conditions: rats with skin/muscle inflammation, 60 min after injection, mean ± SD
Source text: as §3, §4

[7] = Sprague-Dawley rats, turpentine oil skin/muscle inflammation, i.v., dynamic PET 10–60 min, mean ± SD, SD
[8] = adipose tissue, WAT, 14 MBq, read-out: Ex vivo biodistribution, Adipose tissue, WAT
[9] = aorta, 14 MBq, read-out: Ex vivo biodistribution, Aorta
[10] = blood, 14 MBq, read-out: Ex vivo biodistribution, Blood
[11] = brain, 14 MBq, read-out: Ex vivo biodistribution, Brain
[12] = heart, 14 MBq, read-out: Ex vivo biodistribution, Heart
[13] = kidney, 14 MBq, read-out: Ex vivo biodistribution, Kidney
[14] = thymus, 14 MBq, read-out: Ex vivo biodistribution, Thymus
[15] = extrapolated from the rat PET data, OLINDA/EXM, 70 kg male
[16] = source organ, extrapolated from the rat PET data to 70 kg male

SMILES: CC(C)C[C@@H]1NC(=O)CNC(=O)[C@H](CCCNC(=N)N)NC(=O)[C@H](Cc2c[nH]c3ccccc23)NC(=O)[C@H](CO)NC(=O)[C@H](CC(C)C)NC(=O)[C@H](CO)NC(=O)[C@H](CC(C)C)NC(=O)[C@H](CCCNC(=N)N)NC(=O)[C@H](C)NC(=O)[C@@H](NC(=O)COCCOCCNC(=O)CON=C[C@H](O)[C@H](O)[C@H](O)CF)CSSC[C@@H](C(=O)N2CCC[C@H]2C(=O)N[C@@H](CO)C(=O)N[C@@H](CCCCN)C(=O)O)NC(=O)[C@H](CC(C)C)NC(=O)[C@H]([C@@H](C)O)NC1=O [^18F-FDR-Siglec-9] ({X1-AEEA}-CARLSLSWRGLTLCPSK-OH; disulfide 1-14; N-terminus and C-terminus assumed)
- SUVmean,10–60 min in the inflamed area ([1]; Sprague-Dawley rats, turpentine oil skin/muscle inflammation, i.v., dynamic PET 10–60 min, mean ± SD, n = 5 (68Ga) or 8 (18F), SD): 0.77 ± 0.22
- SUVmax,10–60 min in the inflamed area [1, 7]: 1.1 ± 0.097
- inflammation-to-blood ratio 10–60 min (PET) [1, 7]: 1.7 ± 0.51
- time of peak uptake in the inflamed area after the i.v. bolus injection ([1]; rat, in vivo, iv): about 10 min
- tissue uptake at 25 min ([2]; LDLR^−/−ApoB^100/100 (strain #003000), liver, read-out: Ex vivo biodistribution, Liver): 3 ± 0.97 %ID/g
- tissue uptake at 25 min ([2]; LDLR^−/−ApoB^100/100 (strain #003000), lungs, read-out: Ex vivo biodistribution, Lungs): 2.4 ± 1.1 %ID/g
- tissue uptake at 25 min ([2]; LDLR^−/−ApoB^100/100 (strain #003000), muscle, read-out: Ex vivo biodistribution, Muscle): 0.62 ± 0.2 %ID/g
- tissue uptake at 25 min ([2]; LDLR^−/−ApoB^100/100 (strain #003000), pancreas, read-out: Ex vivo biodistribution, Pancreas): 0.82 ± 0.28 %ID/g
- tissue uptake at 25 min ([2]; LDLR^−/−ApoB^100/100 (strain #003000), plasma, read-out: Ex vivo biodistribution, Plasma): 5.7 ± 1.4 %ID/g
- tissue uptake at 25 min ([2]; LDLR^−/−ApoB^100/100 (strain #003000), small intestine, read-out: Ex vivo biodistribution, Small intestine): 1.6 ± 0.49 %ID/g
- tissue uptake at 25 min ([2]; LDLR^−/−ApoB^100/100 (strain #003000), spleen, read-out: Ex vivo biodistribution, Spleen): 1.1 ± 0.28 %ID/g
- tissue uptake at 25 min [2, 8]: 0.72 ± 0.66 %ID/g
- tissue uptake at 25 min [2, 9]: 0.93 ± 0.38 %ID/g
- tissue uptake at 25 min [2, 10]: 3.2 ± 0.82 %ID/g
- tissue uptake at 25 min [2, 11]: 0.15 ± 0.06 %ID/g
- tissue uptake at 25 min [2, 12]: 0.62 ± 0.28 %ID/g
- tissue uptake at 25 min [2, 13]: 44 ± 26 %ID/g
- tissue uptake at 25 min [2, 14]: 0.69 ± 0.19 %ID/g
- excreta dose per gram or mL at 25 min ([2]; urine, 14 MBq): 470 ± 370 %ID/g
- tissue uptake at 25 min ([3]; adipose tissue, BAT, 14 MBq, read-out: Ex vivo biodistribution, Adipose tissue, BAT): 0.45 ± 0.13 %ID/g
- tissue uptake at 25 min [3, 8]: 0.63 ± 0.37 %ID/g
- tissue uptake at 25 min [3, 9]: 0.52 ± 0.23 %ID/g
- tissue uptake at 25 min [3, 10]: 2.1 ± 0.59 %ID/g
- tissue uptake at 25 min [3, 11]: 0.11 ± 0.048 %ID/g
- tissue uptake at 25 min [3, 12]: 0.34 ± 0.082 %ID/g
- tissue uptake at 25 min [3, 13]: 43 ± 25 %ID/g
- tissue uptake at 25 min ([3]; liver, read-out: Ex vivo biodistribution, Liver): 3.5 ± 2.3 %ID/g
- tissue uptake at 25 min ([3]; lungs, read-out: Ex vivo biodistribution, Lungs): 1.5 ± 0.45 %ID/g
- tissue uptake at 25 min ([3]; muscle, read-out: Ex vivo biodistribution, Muscle): 0.43 ± 0.13 %ID/g
- tissue uptake at 25 min ([3]; pancreas, read-out: Ex vivo biodistribution, Pancreas): 0.57 ± 0.18 %ID/g
- tissue uptake at 25 min ([3]; plasma, read-out: Ex vivo biodistribution, Plasma): 3.8 ± 0.62 %ID/g
- tissue uptake at 25 min ([3]; small intestine, read-out: Ex vivo biodistribution, Small intestine): 0.79 ± 0.29 %ID/g
- tissue uptake at 25 min ([3]; spleen, read-out: Ex vivo biodistribution, Spleen): 0.62 ± 0.32 %ID/g
- tissue uptake at 25 min [3, 14]: 0.43 ± 0.089 %ID/g
- excreta dose per gram or mL at 25 min ([3]; urine, 14 MBq): 610 ± 340 %ID/g
- Normalized number of disintegrations, Total body ([4]; extrapolated from the rat PET data to 70 kg male): 1.8 ± 0.32 h
- Human dose equivalent estimate, Adrenals [4, 15]: 0.020 ± 0.0029 mSv/MBq
- Human dose equivalent estimate, Brain [4, 15]: 0.010 ± 0.0018 mSv/MBq
- Human dose equivalent estimate, Breasts [4, 15]: 0.0086 ± 0.0011 mSv/MBq
- Human dose equivalent estimate, Gallbladder wall [4, 15]: 0.017 ± 0.0014 mSv/MBq
- Human dose equivalent estimate, Heart wall [4, 15]: 0.0085 ± 0.00045 mSv/MBq
- Human dose equivalent estimate, Kidneys [4, 15]: 0.29 ± 0.13 mSv/MBq
- Human dose equivalent estimate, Liver [4, 15]: 0.021 ± 0.0061 mSv/MBq
- Human dose equivalent estimate, Lower large intestine wall [4, 15]: 0.014 ± 0.00091 mSv/MBq
- Human dose equivalent estimate, Lungs [4, 15]: 0.0062 ± 0.00016 mSv/MBq
- Human dose equivalent estimate, Muscle [4, 15]: 0.0074 ± 0.00025 mSv/MBq
- Human dose equivalent estimate, Osteogenic cells [4, 15]: 0.016 ± 0.0019 mSv/MBq
- Human dose equivalent estimate, Ovaries [4, 15]: 0.014 ± 0.00083 mSv/MBq
- Human dose equivalent estimate, Pancreas [4, 15]: 0.018 ± 0.0015 mSv/MBq
- Human dose equivalent estimate, Red marrow [4, 15]: 0.012 ± 0.00032 mSv/MBq
- Human dose equivalent estimate, Skin [4, 15]: 0.0080 ± 0.0008 mSv/MBq
- Human dose equivalent estimate, Small intestine [4, 15]: 0.015 ± 0.00049 mSv/MBq
- Human dose equivalent estimate, Spleen [4, 15]: 0.018 ± 0.0022 mSv/MBq
- Human dose equivalent estimate, Stomach wall [4, 15]: 0.014 ± 0.00041 mSv/MBq
- Human dose equivalent estimate, Testes [4, 15]: 0.010 ± 0.0010 mSv/MBq
- Human dose equivalent estimate, Thymus [4, 15]: 0.010 ± 0.0013 mSv/MBq
- Human dose equivalent estimate, Thyroid [4, 15]: 0.0094 ± 0.0014 mSv/MBq
- Human dose equivalent estimate, Total body [4, 15]: 0.012 ± 0.00012 mSv/MBq
- Human dose equivalent estimate, Upper large intestine wall [4, 15]: 0.015 ± 0.00045 mSv/MBq
- Human dose equivalent estimate, Urinary bladder wall [4, 15]: 0.081 ± 0.032 mSv/MBq
- Human dose equivalent estimate, Uterus [4, 15]: 0.017 ± 0.0012 mSv/MBq
- Human effective dose estimate ([4]; extrapolated from the rat PET data, OLINDA/EXM, 70 kg man): 0.022 ± 0.0042 mSv/MBq
- Normalized number of disintegrations, Heart wall [4, 16]: 0.0026 ± 0.0010 h
- Normalized number of disintegrations, Kidneys [4, 16]: 0.47 ± 0.21 h
- Normalized number of disintegrations, Liver [4, 16]: 0.11 ± 0.043 h
- Normalized number of disintegrations, Lungs [4, 16]: 0.0029 ± 0.0011 h
- Normalized number of disintegrations, Muscle [4, 16]: 0.081 ± 0.042 h
- Normalized number of disintegrations, Urinary bladder wall [4, 16]: 0.15 ± 0.070 h
- tissue uptake at 1 h ([5]; adipose tissue, BAT, Adipose tissue, BAT): 0.049 ± 0.019 %ID/g
- tissue uptake at 1 h ([5]; adipose tissue, WAT, Adipose tissue, WAT): 0.017 ± 0.0041 %ID/g
- tissue uptake at 1 h ([5]; blood, Blood): 0.12 ± 0.023 %ID/g
- tissue uptake at 1 h ([5]; bone (femoral), Bone (femoral)): 0.017 ± 0.01 %ID/g
- tissue uptake at 1 h ([5]; bone marrow, Bone marrow): 0.056 ± 0.011 %ID/g
- tissue uptake at 1 h ([5]; brain, Brain): 0.01 ± 0.003 %ID/g
- tissue uptake at 1 h ([5]; control area (intact right foreleg), Control area): 0.11 ± 0.056 %ID/g
- tissue uptake at 1 h ([5]; heart, Heart): 0.048 ± 0.01 %ID/g
- tissue uptake at 1 h ([5]; inflamed area (left foreleg, skin and muscle), Inflamed area): 0.19 ± 0.053 %ID/g
- tissue uptake at 1 h ([5]; kidneys, Kidneys): 14 ± 9.9 %ID/g
- tissue uptake at 1 h ([5]; liver, Liver): 0.68 ± 0.12 %ID/g
- tissue uptake at 1 h ([5]; lungs, Lungs): 0.11 ± 0.028 %ID/g
- tissue uptake at 1 h ([5]; muscle, Muscle): 0.021 ± 0.0067 %ID/g
- tissue uptake at 1 h ([5]; pancreas, Pancreas): 0.048 ± 0.011 %ID/g
- tissue uptake at 1 h ([5]; plasma, Plasma): 0.23 ± 0.087 %ID/g
- tissue uptake at 1 h ([5]; small intestine, Small intestine): 0.091 ± 0.029 %ID/g
- tissue uptake at 1 h ([5]; spleen, Spleen): 0.06 ± 0.012 %ID/g
- excreta dose per gram or mL at 1 h ([5]; urine, SD): 23 ± 14 %ID/g
- tissue uptake at 1 h ([5]; male, testis, Testis): 0.046 ± 0.022 %ID/g
- inflamed-to-control area ratio (ex vivo gamma counting) [6]: 2.0 ± 0.70
- inflammation-to-blood ratio (ex vivo gamma counting) [6]: 1.3 ± 0.16

Source: publication PMC5804415, “Comparison of ^68Ga-DOTA-Siglec-9 and ^18F-Fluorodeoxyribose-Siglec-9: Inflammation Imaging and Radiation Dosimetry” (Contrast Media & Molecular Imaging, 2017)
